Values joined by “and” are separate entries in the source; they are usually repeats but may differ in a detail not shown here. Equal values may be shown once. Where a name gives a salt, the structure may show the parent alone.
Assay: passive transdermal delivery of Tapentadol hydrochloride, 24 hours, no current (comparative example 1b, passive control)
Format: in vitro ADME, pig
Details: for cumulative, passive delivery across the skin, Mean / cumulative, passive delivery across the skin, as tapentadol base, Mean / drug flux across the skin, Mean / drug flux across the skin, as tapentadol base, Mean: n=2; for cumulative, passive delivery across the skin, Mean / cumulative, passive delivery across the skin, as tapentadol base, Mean / drug flux across the skin, Mean / drug flux across the skin, as tapentadol base, Mean / drug flux across the skin / cumulative, passive delivery across the skin: patch area 0.64 cm^2; for drug flux across the skin, Mean / drug flux across the skin, as tapentadol base, Mean / drug flux across the skin: passive, no current; for drug flux across the skin / cumulative, passive delivery across the skin: single cells 1-2
Procedure: For comparison, the rate of transdermal delivery of Tapentadol hydrochloride for a period of 24 hours has been determined without any means of electric-field-assisted administration (passive control).
The flux of Tapentadol hydrochloride from passive diffusion alone was measured (n=2). The experimental set-up was exactly as previously described, except that no electrodes were placed in the diffusion cell and no current was applied. The temperature was held at 37° C. The receptor solution was sampled and assayed at 0.5, 1, 1.5, 2, 3, 4, 5, 6, 7, 8 and 24 hours. 1 ml of receptor solution was removed and replaced with fresh PBS at each sampling point.

CC[C@@H](c1cccc(O)c1)[C@@H](C)CN(C)C [Tapentadol hydrochloride]
cumulative, passive delivery across the skin, Mean (0.5 h): 0 µg | cumulative, passive delivery across the skin, as tapentadol base, Mean (0.5 h): 0 µg | drug flux across the skin, Mean (0.5 h): 0 µg/h | drug flux across the skin, as tapentadol base, Mean (0.5 h): 0 µg/h | drug flux across the skin (0.5 h): 0 µg/h | cumulative, passive delivery across the skin (0.5 h): 0 µg | cumulative, passive delivery across the skin, Mean (1 h): 0 µg | cumulative, passive delivery across the skin, as tapentadol base, Mean (1 h): 0 µg | drug flux across the skin, Mean (1 h): 0 µg/h | drug flux across the skin, as tapentadol base, Mean (1 h): 0 µg/h | drug flux across the skin (1 h): 0 µg/h | cumulative, passive delivery across the skin (1 h): 0 µg | cumulative, passive delivery across the skin, Mean (1.5 h): 0 µg | cumulative, passive delivery across the skin, as tapentadol base, Mean (1.5 h): 0 µg | drug flux across the skin, Mean (1.5 h): 0 µg/h | drug flux across the skin, as tapentadol base, Mean (1.5 h): 0 µg/h | drug flux across the skin (1.5 h): 0 µg/h | cumulative, passive delivery across the skin (1.5 h): 0 µg | cumulative, passive delivery across the skin, Mean (2 h): 0 µg | cumulative, passive delivery across the skin, as tapentadol base, Mean (2 h): 0 µg | drug flux across the skin, Mean (2 h): 0 µg/h | drug flux across the skin, as tapentadol base, Mean (2 h): 0 µg/h | drug flux across the skin (2 h): 0 µg/h | cumulative, passive delivery across the skin (2 h): 0 µg | cumulative, passive delivery across the skin, Mean (3 h): 2 µg | cumulative, passive delivery across the skin, as tapentadol base, Mean (3 h): 1 µg | drug flux across the skin, Mean (3 h): 1 µg/h | drug flux across the skin, as tapentadol base, Mean (3 h): 1 µg/h | drug flux across the skin (3 h): 1 µg/h | cumulative, passive delivery across the skin (3 h, listed as Tapentadol HCl, hydrochloride): 2 µg and 1 µg | cumulative, passive delivery across the skin, Mean (4 h): 4 µg | cumulative, passive delivery across the skin, as tapentadol base, Mean (4 h): 3 µg | drug flux across the skin, Mean (4 h): 2 µg/h | drug flux across the skin, as tapentadol base, Mean (4 h): 2 µg/h | drug flux across the skin (4 h): 2 µg/h | cumulative, passive delivery across the skin (4 h, listed as Tapentadol HCl, hydrochloride): 4 µg and 3 µg | cumulative, passive delivery across the skin, Mean (5 h): 6 µg | cumulative, passive delivery across the skin, as tapentadol base, Mean (5 h): 5 µg | drug flux across the skin, Mean (5 h): 3 µg/h | drug flux across the skin, as tapentadol base, Mean (5 h): 2 µg/h | drug flux across the skin (5 h, hydrochloride): 3 µg/h and 2 µg/h | cumulative, passive delivery across the skin (5 h, listed as Tapentadol HCl, hydrochloride): 7 µg and 5 µg | cumulative, passive delivery across the skin, Mean (6 h): 9 µg | cumulative, passive delivery across the skin, as tapentadol base, Mean (6 h): 8 µg | drug flux across the skin, Mean (6 h): 3 µg/h | drug flux across the skin, as tapentadol base, Mean (6 h): 3 µg/h | drug flux across the skin (6 h, hydrochloride): 4 µg/h and 3 µg/h | cumulative, passive delivery across the skin (6 h, listed as Tapentadol HCl, hydrochloride): 11 µg and 8 µg | cumulative, passive delivery across the skin, Mean (7 h): 13 µg | cumulative, passive delivery across the skin, as tapentadol base, Mean (7 h): 11 µg | drug flux across the skin, Mean (7 h): 3 µg/h | drug flux across the skin, as tapentadol base, Mean (7 h): 3 µg/h | drug flux across the skin (7 h, hydrochloride): 4 µg/h and 3 µg/h | cumulative, passive delivery across the skin (7 h, listed as Tapentadol HCl, hydrochloride): 14 µg and 11 µg | cumulative, passive delivery across the skin, Mean (8 h): 18 µg | cumulative, passive delivery across the skin, as tapentadol base, Mean (8 h): 15 µg | drug flux across the skin, Mean (8 h): 5 µg/h | drug flux across the skin, as tapentadol base, Mean (8 h): 4 µg/h | drug flux across the skin (8 h, hydrochloride): 5 µg/h and 4 µg/h | cumulative, passive delivery across the skin (8 h, listed as Tapentadol HCl, hydrochloride): 20 µg and 15 µg | cumulative, passive delivery across the skin, Mean (24 h): 186 µg | cumulative, passive delivery across the skin, as tapentadol base, Mean (24 h): 159 µg | drug flux across the skin, Mean (24 h): 11 µg/h | drug flux across the skin, as tapentadol base, Mean (24 h): 9 µg/h | drug flux across the skin (24 h, hydrochloride): 11 µg/h and 10 µg/h | cumulative, passive delivery across the skin (24 h, listed as Tapentadol HCl, hydrochloride): 192 µg and 179 µg | rate of passive diffusion (by 24 hours): 16 μg/h/cm2 | time within which steady state flux was not reached (comparative example 1b, passive diffusion): > 8 h

— US10632195B2, “Pharmaceutical device for electric-field assisted administration of Tapentadol and method of administering Tapentadol with same” (Gruenenthal GmbH, priority 2012, dated 2020)
